How the values were obtained:
Format in all cases: cell-based, human
[1] = system: T389pS6K1 (mTORC1) in PC3 cells; test: Chronic treatment of PC3 cells, T389pS6K1 Western blot
Experimental: (§1) MCF-7 cells were serum-starved for 16 h and treated with compound for 90 min before cell lysis and Western blot analysis. For insulin-stimulated cells, 100 nM insulin was added 30 min before cell lysis. For EGF-stimulated cells, 100 ng mL^−1 EGF was added 10 min before cell lysis. c Rap1 activity was detected in lysates loaded in vitro with either GDP or GTPγS and treated with NR1 at the indicated concentrations. This was followed by a subsequent pulldown of GST-RalGDS-RBD. Bound Rap1 was detected by Western blot. d Evaluation of NR1 in a LAM patient-derived cell line (TRI102) under replete and serum-starved conditions. For replete conditions, TRI102 cells were treated for 90 min with compound in DMEM + 10% FBS. For serum-starved conditions, TRI102 cells were serum-starved 16 h and then treated for 90 min with compound prior to cell lysis and Western blot analysis. e HEK293 cells co-transfected with the indicated mTOR constructs and HA-GST-S6K1 were starved of amino acids or treated with NR1. To assess mTORC1 activity, an HA IP was performed and Western blots probed for ^T389pS6K1. f Chronic treatment of PC3 cells with NR1 to evaluate the inhibition of mTORC1 (using ^T389pS6K1) versus mTORC2 (using ^S473pAKT). PC3 cells were treated with compound under replete conditions for 24 h prior to cell lysis and Western blot analysis.
(§2) Accordingly, a hallmark of a selective mTORC1 inhibitor such as NR1 would be the lack of mTORC2 inhibition irrespective of the duration of treatment. PC3 cells are sensitive to mTORC2 inhibition with long-term rapamycin treatment. Indeed, upon treatment with rapamycin for 24 h, both ^T389pS6K1 and ^S473pAKT were lowered, indicating inhibitory effects on both mTORC1 and mTORC2, respectively.
(§3) For Western-based signaling assays, cells were treated for either 90 min or 2–24 h as indicated before lysis, normalization, and Western analysis. Cells were lysed in Triton lysis buffer: 1% Triton X-100, 50 mM HEPES pH 7.4, 100 mM NaCl, 2 mM EDTA, 10 mM β-glycerophosphate, 10 mM Na-pyrophosphate, protease inhibitor.

[2] = system: Jurkat cells; test: Cell size assay in Jurkat cells (forward scatter, flow cytometry); conditions: 48 h incubation, dose-dependent
Experimental: Based on the dependence of cell size on mTORC1 activity, we assessed the effect of NR1 on the size of Jurkat cells, a human T cell line grown in suspension and responsive to mTORC1 inhibition.
Data are plotted as percent decrease in forward scatter. […] Error bars represent standard deviation of the mean of duplicates; graph represents data from one of two separate experiments
For the cell size assay, Jurkat Clone E-61 cells were plated in 96-well plates concurrent with compound. The cells were incubated at 37 °C and 5% CO2 for 48 h. PI stain (Invitrogen #727949) was added at a final concentration of 1 µg mL^−1, and cells were incubated for 15 min at room temperature. FACS analysis was performed; at least 10,000 events were collected for each sample. Viable cells (PI minus) were counted for FSC and SSC, and cell size (as measured by FSC) relative to the DMSO control was calculated.

[3] = system: S473pAKT (mTORC2 activity) in MCF-7 cells; test: S473pAKT AlphaLISA assay in MCF-7 cells; conditions: MCF-7, replete conditions, 120 min, dose-dependent
Excerpt: (§4) We next evaluated the activity of NR1 in cell culture. Selective inhibition of mTORC1 in cells produces a specific signaling signature characterized by a reduction in phosphorylation of the mTORC1 substrates S6K1 and 4E-BP1 and increase in phosphorylation of AKT, catalyzed by mTORC2. This distinctive profile reflects the relief of a feedback loop where active S6K1 directly phosphorylates IRS1, resulting in the degradation of IRS1 and subsequent reduction of growth factor signaling from RTKs to downstream effectors such as AKT[1]. Conversely, reduction in ^T389pS6K1 is expected to lead to an increase in ^S473pAKT levels. We used AlphaLISA assays to detect ^T389pS6K1 and ^S473pAKT in MCF-7 cells. […]
(§5) Evaluation of NR1 in MCF-7 under replete conditions. […] The indicated phosphoproteins were detected using AlphaLISA assays for T389pS6K1 (reflecting mTORC1 activity) and S473pAKT (reflecting mTORC2 activity). […]
(§6) The compounds were added to the kinase reaction mixture by Acoustic technology (Echo550; nanoliter range) and incubated for 20 min at room temperature before the addition of 100 µM 33P-ATP. The reaction was incubated for 2 h at room temperature, and kinase activity was detected by a P81 filter- […]
(§7) AlphaLISA assays. […] The AlphaLISA protocol was performed in 384-well plates as instructed by Perkin Elmer, and the plates were read on an EnVision plate reader. […]

[4] = system: T389pS6K1 (mTORC1 activity) in MCF-7 cells; test: T389pS6K1 AlphaLISA assay in MCF-7 cells
Excerpt: as §4, §5, §6, §7

[5] = system: S473pAKT (mTORC2) in PC3 cells; test: Chronic treatment of PC3 cells, S473pAKT Western blot
Experimental: as §1, §2, §3

[6] = PC3, replete, 24 h, NR1 30 µM, rapamycin 100 nM
[7] = PC3, time points 2 h through 24 h

## CN(C)C(=O)c1ccc(Cn2c(C(=O)O)cc3c(Br)cc(Sc4ccc(Cl)c(Cl)c4)cc32)cc1 [NR1, 4-bromo-6-(3,4-dichlorophenylthio)-1-(4-(dimethylcarbamoyl)benzyl)-1H-indole-2-carboxylic acid]
[1]; [6]
  T389pS6K1 after 24 h treatment: potent inhibition
[1]; [7]
  pS6K1 over time course: inhibits pS6K1
[2]
  size of Jurkat cells: effectively reduced the size
[3]
  phosphorylation of S473pAKT: increased the phosphorylation
[4]; Homo sapiens, MCF7, inhibition of S6K phosphorylation in cells, read-out: potency in cellular assays
  IC50: 2000 nM
[4]; MCF-7, replete conditions, 120 min, dose-dependent
  phosphorylation of T389pS6K1: inhibited the phosphorylation
[5]; [6]
  S473pAKT after 24 h treatment: no inhibition
[5]; [7]
  pAkt over time course: activates pAkt

From article PMC5803267, “A small molecule inhibitor of Rheb selectively targets mTORC1 signaling” (Nature Communications, 2018)
